Test results as given in US12577206B2 (BRISTOL-MYERS SQUIBB COMPANY, priority 2020, dated 2026).

How the values were obtained:
human FPR2 = biological target: T1, human FPR2 (Homo sapiens, UniProt P25090); assay: FPR2 cyclic adenosine monophosphate (cAMP) assay; type: cell-based; details: CHO cells overexpressing human FPR2; forskolin 5 μM; inhibition of cAMP production; HTRF; read-out: hFPR2 cAMP2 EC50
T1 sequence (P25090 1-351): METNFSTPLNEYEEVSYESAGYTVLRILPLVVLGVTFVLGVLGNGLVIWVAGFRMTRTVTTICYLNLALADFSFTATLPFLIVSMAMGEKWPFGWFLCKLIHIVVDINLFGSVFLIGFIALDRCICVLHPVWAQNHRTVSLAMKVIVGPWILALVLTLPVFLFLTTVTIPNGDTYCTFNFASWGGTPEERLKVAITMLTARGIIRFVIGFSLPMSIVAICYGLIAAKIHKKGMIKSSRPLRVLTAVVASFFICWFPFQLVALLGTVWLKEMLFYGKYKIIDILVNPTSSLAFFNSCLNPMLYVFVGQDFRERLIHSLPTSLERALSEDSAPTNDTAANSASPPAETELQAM
Procedure, shortened: (§1)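 CHO/hFPR1 4,000 cells/well, forskolin 10 μM final; CHO/hFPR2 2,000 cells/well, forskolin 5 μM final. IBMX 200 μM, DMSO 1%, DPBS + Ca/Mg + 0.1% BSA, 30 min rt. HTRF cAMP; 4-PL fit.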

human FPR1 = biological target: T2, human FPR1 (Homo sapiens, UniProt P21462); assay: FPR1 cyclic adenosine monophosphate (cAMP) assay; type: cell-based; details: CHO cells overexpressing human FPR1; forskolin 10 μM; inhibition of cAMP production; HTRF; read-out: hFPR1 cAMP2 EC50
T2 sequence (P21462 1-350): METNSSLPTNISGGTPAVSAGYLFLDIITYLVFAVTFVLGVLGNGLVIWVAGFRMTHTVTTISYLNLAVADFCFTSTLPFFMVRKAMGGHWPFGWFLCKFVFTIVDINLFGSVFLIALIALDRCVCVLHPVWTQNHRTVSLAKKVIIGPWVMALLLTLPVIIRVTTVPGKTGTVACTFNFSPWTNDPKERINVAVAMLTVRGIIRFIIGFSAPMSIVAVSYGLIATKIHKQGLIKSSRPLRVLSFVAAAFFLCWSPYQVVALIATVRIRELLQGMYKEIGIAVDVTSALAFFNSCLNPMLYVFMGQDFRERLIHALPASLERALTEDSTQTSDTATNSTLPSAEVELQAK
Procedure, shortened: as §1

| Structure (SMILES) | EC50 (human FPR2) [nM] | EC50 (human FPR1) [nM] |
| --- | --- | --- |
| COc1cc(F)c(-c2c(NC(=O)c3ccc(OC(F)F)cc3)c(=O)n(-c3cccn(C)c3=O)n2C)c(F)c1 [Example 395, N-(5-(2,6-Difluoro-4-methoxyphenyl)-1-methyl-2-(1-methyl-2-oxo-1,2-dihydropyridin-3-yl)-3-oxo-2,3-dihydro-1H-pyrazol-4-yl)-4-(difluoromethoxy)benzamide] | 61 | > 10000 |
| COc1cc(F)c(-c2c(NC(=O)c3ccc(OC(F)F)cc3)c(=O)n(-c3nc(NCC4CC4)ccc3C(F)(F)F)n2C)c(F)c1 [Example 264, N-(2-{6-[(cyclopropylmethyl)amino]-3-(trifluoromethyl)pyridin-2-yl}-5-(2,6-difluoro-4-methoxyphenyl)-1-methyl-3-oxo-2,3-dihydro-1H-pyrazol-4-yl)-4-(difluoromethoxy)benzamide] | 2 | > 5000 |
| COc1cc(F)c(-c2c(NC(=O)c3ccc(OC(F)F)cc3)c(=O)n(-c3cc(C4CCN(C)CC4)cc(C)n3)n2C)c(F)c1 [Example 324, N-(5-(2,6-Difluoro-4-methoxyphenyl)-1-methyl-2-(6-methyl-4-(1-methylpiperidin-4-yl)pyridin-2-yl)-3-oxo-2,3-dihydro-1H-pyrazol-4-yl)-4-(difluoromethoxy)benzamide] | 5 | > 10000 |
| COc1cc(F)c(-c2c(NC(=O)c3ccc(OC(F)F)cc3)c(=O)n(-c3cccc(OC)c3C#N)n2C)c(F)c1 [Example 184, N-[2-(2-cyano-3-methoxyphenyl)-5-(2,6-difluoro-4-methoxyphenyl)-1-methyl-3-oxo-2,3-dihydro-1H-pyrazol-4-yl]-4-(difluoromethoxy)benzamide] | 8 | > 10000 |
| COc1cc(F)c(-c2c(NC(=O)c3ccc(OC(F)F)cc3)c(=O)n(-c3cc(OCC4CCCO4)cc(C)n3)n2C)c(F)c1 (stereo not drawn) [Example 391, N-(5-(2,6-Difluoro-4-methoxyphenyl)-1-methyl-2-(6-methyl-4-((tetrahydrofuran-2-yl)methoxy)pyridin-2-yl)-3-oxo-2,3-dihydro-1H-pyrazol-4-yl)-4-(difluoromethoxy)benzamide] | 6 | 240 |
| COc1cc(F)c(-c2c(NC(=O)c3ccc(OC(F)(F)F)cc3)c(=O)n(-c3cc(Cl)ccn3)n2C)c(F)c1 [Example 153, N-[2-(4-chloropyridin-2-yl)-5-(2,6-difluoro-4-methoxyphenyl)-1-methyl-3-oxo-2,3-dihydro-1H-pyrazol-4-yl]-4-(trifluoromethoxy)benzamide] | 5 | 4200 |
| COc1cc(F)c(-c2c(NC(=O)c3ccc(OC(F)F)cc3)c(=O)n(-c3cc(Cl)cc(C(=O)N(C)C)c3)n2C)c(F)c1 [Example 126, 3-chloro-5-[3-(2,6-difluoro-4-methoxyphenyl)-4-[4-(difluoromethoxy)benzamido]-2-methyl-5-oxo-2,5-dihydro-1H-pyrazol-1-yl]-N,N-dimethylbenzamide] | 9 | 1200 |
| COCCNc1ccc(C(F)(F)F)c(-n2c(=O)c(NC(=O)c3ccc(OC(F)F)cc3)c(-c3c(F)cc(OC)cc3F)n2C)n1 [Example 235, N-[5-(2,6-difluoro-4-methoxyphenyl)-2-{6-[(2-methoxyethyl)amino]-3-(trifluoromethyl)pyridin-2-yl}-1-methyl-3-oxo-2,3-dihydro-1H-pyrazol-4-yl]-4-(difluoromethoxy)benzamide] | 1 | > 10000 |
| COc1cc(F)c(-c2c(NC(=O)c3ccc(OC(F)F)cc3)c(=O)n(-c3cccc(C#N)c3)n2C)c(F)c1 [Example 110, N-[2-(3-cyanophenyl)-5-(2,6-difluoro-4-methoxyphenyl)-1-methyl-3-oxo-2,3-dihydro-1H-pyrazol-4-yl]-4-(difluoromethoxy)benzamide] | 9 | 37 |
| COc1cc(F)c(-c2c(NC(=O)c3ccc(OC(F)F)cc3)c(=O)n(-c3cc(C#N)cc(C(C)C)c3)n2C)c(F)c1 [Example 119, N-{2-[3-cyano-5-(propan-2-yl)phenyl]-5-(2,6-difluoro-4-methoxyphenyl)-1-methyl-3-oxo-2,3-dihydro-1H-pyrazol-4-yl}-4-(difluoromethoxy)benzamide] | 8 | 65 |
| COCCN1CCN(c2cccc(-n3c(=O)c(NC(=O)c4ccc(OC(F)F)cc4)c(-c4c(F)cc(OC)cc4F)n3C)n2)CC1 [Example 212, N-[5-(2,6-difluoro-4-methoxyphenyl)-2-{6-[4-(2-methoxyethyl)piperazin-1-yl]pyridin-2-yl}-1-methyl-3-oxo-2,3-dihydro-1H-pyrazol-4-yl]-4-(difluoromethoxy)benzamide] | 9 | > 10000 |
| COc1cc(F)c(-c2c(NC(=O)c3ccc(OC(F)F)cc3)c(=O)n(-c3cc(C)cc(OCC4(C)COC4)n3)n2C)c(F)c1 [Example 353, N-(5-(2,6-Difluoro-4-methoxyphenyl)-1-methyl-2-(4-methyl-6-((3-methyloxetan-3-yl)methoxy)pyridin-2-yl)-3-oxo-2,3-dihydro-1H-pyrazol-4-yl)-4-(difluoromethoxy)benzamide] | 2 | 1600 |
| COc1cc(-n2c(=O)c(NC(=O)c3ccc(OC(F)F)cc3)c(-c3c(F)cc(OC)cc3F)n2C)cc(C(F)(F)F)c1 [Example 117, N-[5-(2,6-difluoro-4-methoxyphenyl)-2-[3-methoxy-5-(trifluoromethyl)phenyl]-1-methyl-3-oxo-2,3-dihydro-1H-pyrazol-4-yl]-4-(difluoromethoxy)benzamide] | 8 | > 10000 |
| COc1cc(F)c(-c2c(NC(=O)c3ccc(OC(F)F)cc3)c(=O)n(-c3cccc(N4CC(F)(F)C4)n3)n2C)c(F)c1 [Example 104, N-[5-(2,6-difluoro-4-methoxyphenyl)-2-[6-(3,3-difluoroazetidin-1-yl)pyridin-2-yl]-1-methyl-3-oxo-2,3-dihydro-1H-pyrazol-4-yl]-4-(difluoromethoxy)benzamide] | 3 | 6200 |
| Cn1c(-c2ccc(Cl)cc2)c(NC(=O)c2ccc(OC(F)F)cc2)c(=O)n1-c1ncccc1C(F)(F)F [Example 249, N-[5-(4-chlorophenyl)-1-methyl-3-oxo-2-[3-(trifluoromethyl)pyridin-2-yl]-2,3-dihydro-1H-pyrazol-4-yl]-4-(difluoromethoxy)benzamide] | 38 | 510 |
| COc1cc(F)c(-c2c(NC(=O)c3ccc(OC(F)F)cc3)c(=O)n(-c3nc(N4CC(C)(O)C4)ccc3Cl)n2C)c(F)c1 [Example 307, N-{2-[3-chloro-6-(3-hydroxy-3-methylazetidin-1-yl)pyridin-2-yl]-5-(2,6-difluoro-4-methoxyphenyl)-1-methyl-3-oxo-2,3-dihydro-1H-pyrazol-4-yl}-4-(difluoromethoxy)benzamide] | 5 | > 10000 |
| COc1cc(F)c(-c2c(NC(=O)c3ccc(OC(F)F)cc3)c(=O)n(-c3nc(N[C@H]4CCOC4)ccc3C(F)(F)F)n2C)c(F)c1 [Example 255] | 2 | > 10000 |
| COc1cc(C2CCCNC2)nc(-n2c(=O)c(NC(=O)c3ccc(OC(F)F)cc3)c(-c3c(F)cc(OC)cc3F)n2C)c1 (stereo not drawn) [Example 346, N-(5-(2,6-Difluoro-4-methoxyphenyl)-2-(4-methoxy-6-(piperidin-3-yl)pyridin-2-yl)-1-methyl-3-oxo-2,3-dihydro-1H-pyrazol-4-yl)-4-(difluoromethoxy)benzamide] | 5 | > 10000 |
| COc1cc(O)c(-c2c(NC(=O)c3ccc(OC(F)F)cc3)c(=O)n(-c3nc(Cl)ccc3Cl)n2C)c(F)c1 [Example 296, N-[2-(3,6-dichloropyridin-2-yl)-5-(2-fluoro-6-hydroxy-4-methoxyphenyl)-1-methyl-3-oxo-2,3-dihydro-1H-pyrazol-4-yl]-4-(difluoromethoxy)benzamide] | 33 | > 10000 |
| Cn1c(-c2ccc(C3CC3)cc2)c(NC(=O)c2ccc(OC(F)F)cc2)c(=O)n1-c1ncccc1C(F)(F)F [Example 277, N-[5-(4-cyclopropylphenyl)-1-methyl-3-oxo-2-[3-(trifluoromethyl)pyridin-2-yl]-2,3-dihydro-1H-pyrazol-4-yl]-4-(difluoromethoxy)benzamide] | 17 | 730 |
| COc1cc(F)c(-c2c(NC(=O)c3ccc(OC(F)(F)F)cc3)c(=O)n(-c3cc(C(F)(F)F)ccn3)n2C)c(F)c1 [Example 63, N-[5-(2,6-difluoro-4-methoxyphenyl)-1-methyl-3-oxo-2-[4-(trifluoromethyl)pyridin-2-yl]-2,3-dihydro-1H-pyrazol-4-yl]-4-(trifluoromethoxy)benzamide] | 7 | > 10000 |
